This is an account of results in ChEMBL document CHEMBL1130598, “Pyrroles and other heterocycles as inhibitors of p38 kinase” (Bioorg Med Chem Lett, 1998).

In experiment [1] the target is Mitogen-activated protein kinase 14 (Rattus norvegicus, UniProt P70618). In words: Inhibitory potency evaluated against rat p38 kinase.
The target in experiment [2] is MAP kinase p38 (Homo sapiens) (UniProt O15264+Q15759+Q16539+P53778). In words: Inhibition of p38 MAP kinase. Type of experiment: protein assay.
For experiment [3], the species on record is Rattus norvegicus. In words: Inhibition of secondary paw swelling in rat adjuvant arthritis model. Format: functional.
The species named for experiment [4] is Rattus norvegicus. The experiment in a line: Inhibition of secondary paw swelling in rat adjuvant arthritis model […]. Format: functional.

Each structure is given as a SMILES string.

Chain of Mitogen-activated protein kinase 14 (P70618 whole entry): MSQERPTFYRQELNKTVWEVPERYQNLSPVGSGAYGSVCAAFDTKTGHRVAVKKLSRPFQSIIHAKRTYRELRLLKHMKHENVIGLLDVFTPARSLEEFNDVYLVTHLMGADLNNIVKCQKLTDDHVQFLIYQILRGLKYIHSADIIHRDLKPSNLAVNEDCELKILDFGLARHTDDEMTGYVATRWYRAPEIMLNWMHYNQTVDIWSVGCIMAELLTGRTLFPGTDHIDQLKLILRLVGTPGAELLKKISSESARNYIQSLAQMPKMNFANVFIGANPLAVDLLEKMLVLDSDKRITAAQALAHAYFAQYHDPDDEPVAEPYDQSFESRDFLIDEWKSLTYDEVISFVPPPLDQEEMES

Broadly, the IC50 is the concentration needed to halve the response being measured. In turn, `O=C(CCN1CCCCC1)Nc1ccc(-c2cc(-c3ccncc3)c(-c3ccccc3)[nH]2)cc1` yielded an IC50 in experiment [1] of 390 nM.

One may read the inhibition as how much of the control response was suppressed. A lower inhibition goes with little suppression. For the compound `Fc1ccc(-c2[nH]c(-c3ccccc3)cc2-c2ccccc2)cc1`, the inhibition in experiment [2] is 79%.

In experiment [1], `Oc1ccc(-c2[nH]c(-c3ccccc3)cc2-c2ccncc2)cc1` had an IC50 of 2400 nM.

`Nc1ccc(-c2cc(-c3ccncc3)c(-c3ccccc3)[nH]2)cc1` returned an IC50 in experiment [1] of 28 nM. This IC50 is about 86-fold lower than that of the compound before.

For `N#Cc1cccc(-c2[nH]c(-c3ccccc3)cc2-c2ccncc2)c1`, inhibition in experiment [1] was half-maximal at 53 nM (IC50).

In turn, `c1ccc(-c2cc(-c3ccncc3)c(-c3ccccc3)[nH]2)cc1` had a 50% inhibitory concentration (IC50) in experiment [1] of 17 nM.

Turning to `c1ccc(-c2cc(-c3ccncc3)c(-c3ccccn3)[nH]2)cc1`, in experiment [1], inhibition was half-maximal at 2300 nM (IC50).

With `Fc1ccc(-c2[nH]c(-c3ccccc3)cc2-c2ccncn2)cc1`, half-maximal inhibition in experiment [1] (IC50) was put at 710 nM. This IC50 is about 3.2-fold lower than that of the compound before.

With `CCOC(=O)c1ccc(-c2[nH]c(-c3ccccc3)cc2-c2ccncc2)cc1`, the IC50 in experiment [1] was greater than 10000 nM.

Regarding `Fc1ccc(-c2cc(-c3ccc(Cl)cc3)[nH]c2-c2ccncc2)cc1`, it took 1400 nM to reach half-maximal inhibition in experiment [1] (IC50).

The compound `COc1ccc(-c2cc(-c3ccncc3)c(-c3ccc(F)cc3)[nH]2)cc1` returned an IC50 in experiment [1] of 60 nM.

Compound `O=C(NCCN1CCCCC1)c1ccc(-c2cc(-c3ccncc3)c(-c3ccccc3)[nH]2)cc1` had an IC50 in experiment [1] of 97 nM.

Consider `O=[N+]([O-])c1cccc(-c2cc(-c3ccncc3)c(-c3ccccc3)[nH]2)c1`, for which the IC50 in experiment [1] is 53 nM.

`Fc1ccc(-c2nc(-c3ccc(Cl)cc3)[nH]c2-c2ccncc2)cc1` displayed an IC50 in experiment [1] of 80 nM. This IC50 lies about 1.5-fold higher than the previous one.

Consider `Fc1ccc(-c2cc(-c3ccncc3)c(-c3ccc(F)cc3)[nH]2)cc1`, for which, in experiment [1], the IC50 came out at 60 nM. The IC50 values of the last two compounds are within 1.5-fold of each other.

In experiment [1], `Fc1ccc(-c2[nH]c(-c3ccc(Br)cc3)cc2-c2ccncc2)cc1` had an IC50 of 100 nM.

In experiment [1], `c1ccc(-c2cc(-c3ccncc3)c(-c3cccnc3)[nH]2)cc1` showed an IC50 of 240 nM.

As to `c1ccc(-c2cc(-c3ccncc3)c(-c3ccncc3)[nH]2)cc1`, the IC50 in experiment [1] stood at 1220 nM.

In turn, `FC(F)(F)c1ccc(-c2[nH]c(-c3ccccc3)cc2-c2ccncc2)cc1` gave an IC50 in experiment [1] of 910 nM.

With `COc1ccc(OC)c(-c2cc(-c3ccncc3)c(-c3ccccc3)[nH]2)c1`, in experiment [1], half-maximal inhibition (IC50) required 5000 nM.

Take `C[S+]([O-])c1ccc(-n2nc(-c3ccncc3)c(-c3ccc(F)cc3)c2O)cc1` (stereo not drawn): the IC50 in experiment [1] is 83 nM.

With `CC(C)(C)Oc1ccc(-c2[nH]c(-c3ccccc3)cc2-c2ccncc2)cc1`, the IC50 in experiment [1] was greater than 1000 nM.

On to `COc1ccc2c(c1)c(CC(=O)O)c(C)n2C(=O)c1ccc(Cl)cc1` [INDOMETHACIN], for which the ID50 in experiment [3] was found to be 1 mg kg-1 b.i.d.

With `Fc1ccc(-c2[nH]c(-c3ccccc3)cc2-c2ccncc2)cc1F`, the IC50 in experiment [1] is 4.4 nM. This lies in the single-digit nanomolar range.

In experiment [1], `Fc1cccc(-c2cc(-c3ccncc3)c(-c3ccccc3)[nH]2)c1` had an IC50 of 42 nM.

The Inhibition is the drop in the measured response relative to a control, in per cent. As for `Oc1c(-c2ccncc2)c(-c2ccc(F)cc2)nn1-c1ccc(Cl)cc1`, in experiment [1], the IC50 was found to be 500 nM. For the same compound, in experiment [4], the Inhibition was determined as 43%.

`O=C(O)c1ccc(-c2cc(-c3ccncc3)c(-c3ccccc3)[nH]2)cc1` came in with an IC50 in experiment [1] of 14 nM.
